In US9340510B2, “Tetrahydroisoquinoline derivatives, pharmaceutical compositions and uses thereof” (Boehringer Ingelheim International GmbH, priority 2014, dated 2016):

Biological target: human ACC2 (Homo sapiens (Human), UniProt O00763)
Test: ACC2 assay: spectrophotometric 384 well assay (coupled lactate dehydrogenase/pyruvate kinase)
Format: biochemical
Details: hACC2 construct lacking the 128 N-terminal amino acids, 25° C., 340 nm
Procedure: Spectrophotometric 384 Well Assay
Malonyl CoA formation by acetyl CoA carboxylases is stoichiometrically linked to the consumption of ATP. ACC2 activity is measured in a […] kinetic method measuring ADP generated during the ACC reaction using a coupled lactate dehydrogenase/pyruvate kinase reaction.
For biological testing, a human ACC2 construct which lacks the 128 amino acids at the N-terminus for increased solubility (nt 385-6966 in Genbank entry AJ575592) is cloned. The protein is then expressed in insect cells using a baculoviral expression system. Protein purification is performed by anion exchange.
All compounds are dissolved in dimethyl sulfoxide (DMSO) to a concentration of 10 mM.
Assay reactions are then carried out in 384-well plates, with hACC2 in an appropriate dilution and at final assay concentrations (f.c.) of 100 mM Tris (pH 7.5), 10 mM trisodium citrate, 25 mM KHCO3, 10 mM MgCl2, 0.5 mg/ml BSA, 3.75 mM reduced L-glutathione, 15 U/ml lactate dehydrogenase, 0.5 mM phosphoenolpyruvate, 15 U/ml pyruvate kinase, compounds at different concentrations at final DMSO concentrations of 1%.
The enzymatic reaction is then started by addition of a mixture of NADH, acetyl Coenzyme A (both […].) and ATP (500 uM f.c.). The decrease of the optical density (slope S) is then determined at 25° C. at a wavelength of 340 nm over 15 minutes in a spectrophotometric reader.
Each assay microtiter plate contains wells with vehicle instead of compound as controls for the non-inhibited enzyme (100% CTL; ‘HIGH’) and wells without acetyl-CoA as controls for non-specific NADH degradation (0% CTL; ‘LOW’).
The slope S is used for calculation of % CTL=(S(compound)−S(‘LOW’))/(S(‘HIGH’)−S(‘LOW’))*100. Compounds will give values between 100% CTL (no inhibition) and 0% CTL (complete inhibition).
For IC50 value determination, the sample slope in the presence of the test compound after subtraction of the low controls (S(compound)−S(‘LOW’)) are used.
An IC50 value is derived from the compound slopes at different dosages after subtraction of the low controls (S(compound)-S(‘LOW’)) by non-linear regression curve fitting (equation y=(A+((B−A)/(1+((C/x)^D))))).

human ACC2, sequence (O00763 129-2458): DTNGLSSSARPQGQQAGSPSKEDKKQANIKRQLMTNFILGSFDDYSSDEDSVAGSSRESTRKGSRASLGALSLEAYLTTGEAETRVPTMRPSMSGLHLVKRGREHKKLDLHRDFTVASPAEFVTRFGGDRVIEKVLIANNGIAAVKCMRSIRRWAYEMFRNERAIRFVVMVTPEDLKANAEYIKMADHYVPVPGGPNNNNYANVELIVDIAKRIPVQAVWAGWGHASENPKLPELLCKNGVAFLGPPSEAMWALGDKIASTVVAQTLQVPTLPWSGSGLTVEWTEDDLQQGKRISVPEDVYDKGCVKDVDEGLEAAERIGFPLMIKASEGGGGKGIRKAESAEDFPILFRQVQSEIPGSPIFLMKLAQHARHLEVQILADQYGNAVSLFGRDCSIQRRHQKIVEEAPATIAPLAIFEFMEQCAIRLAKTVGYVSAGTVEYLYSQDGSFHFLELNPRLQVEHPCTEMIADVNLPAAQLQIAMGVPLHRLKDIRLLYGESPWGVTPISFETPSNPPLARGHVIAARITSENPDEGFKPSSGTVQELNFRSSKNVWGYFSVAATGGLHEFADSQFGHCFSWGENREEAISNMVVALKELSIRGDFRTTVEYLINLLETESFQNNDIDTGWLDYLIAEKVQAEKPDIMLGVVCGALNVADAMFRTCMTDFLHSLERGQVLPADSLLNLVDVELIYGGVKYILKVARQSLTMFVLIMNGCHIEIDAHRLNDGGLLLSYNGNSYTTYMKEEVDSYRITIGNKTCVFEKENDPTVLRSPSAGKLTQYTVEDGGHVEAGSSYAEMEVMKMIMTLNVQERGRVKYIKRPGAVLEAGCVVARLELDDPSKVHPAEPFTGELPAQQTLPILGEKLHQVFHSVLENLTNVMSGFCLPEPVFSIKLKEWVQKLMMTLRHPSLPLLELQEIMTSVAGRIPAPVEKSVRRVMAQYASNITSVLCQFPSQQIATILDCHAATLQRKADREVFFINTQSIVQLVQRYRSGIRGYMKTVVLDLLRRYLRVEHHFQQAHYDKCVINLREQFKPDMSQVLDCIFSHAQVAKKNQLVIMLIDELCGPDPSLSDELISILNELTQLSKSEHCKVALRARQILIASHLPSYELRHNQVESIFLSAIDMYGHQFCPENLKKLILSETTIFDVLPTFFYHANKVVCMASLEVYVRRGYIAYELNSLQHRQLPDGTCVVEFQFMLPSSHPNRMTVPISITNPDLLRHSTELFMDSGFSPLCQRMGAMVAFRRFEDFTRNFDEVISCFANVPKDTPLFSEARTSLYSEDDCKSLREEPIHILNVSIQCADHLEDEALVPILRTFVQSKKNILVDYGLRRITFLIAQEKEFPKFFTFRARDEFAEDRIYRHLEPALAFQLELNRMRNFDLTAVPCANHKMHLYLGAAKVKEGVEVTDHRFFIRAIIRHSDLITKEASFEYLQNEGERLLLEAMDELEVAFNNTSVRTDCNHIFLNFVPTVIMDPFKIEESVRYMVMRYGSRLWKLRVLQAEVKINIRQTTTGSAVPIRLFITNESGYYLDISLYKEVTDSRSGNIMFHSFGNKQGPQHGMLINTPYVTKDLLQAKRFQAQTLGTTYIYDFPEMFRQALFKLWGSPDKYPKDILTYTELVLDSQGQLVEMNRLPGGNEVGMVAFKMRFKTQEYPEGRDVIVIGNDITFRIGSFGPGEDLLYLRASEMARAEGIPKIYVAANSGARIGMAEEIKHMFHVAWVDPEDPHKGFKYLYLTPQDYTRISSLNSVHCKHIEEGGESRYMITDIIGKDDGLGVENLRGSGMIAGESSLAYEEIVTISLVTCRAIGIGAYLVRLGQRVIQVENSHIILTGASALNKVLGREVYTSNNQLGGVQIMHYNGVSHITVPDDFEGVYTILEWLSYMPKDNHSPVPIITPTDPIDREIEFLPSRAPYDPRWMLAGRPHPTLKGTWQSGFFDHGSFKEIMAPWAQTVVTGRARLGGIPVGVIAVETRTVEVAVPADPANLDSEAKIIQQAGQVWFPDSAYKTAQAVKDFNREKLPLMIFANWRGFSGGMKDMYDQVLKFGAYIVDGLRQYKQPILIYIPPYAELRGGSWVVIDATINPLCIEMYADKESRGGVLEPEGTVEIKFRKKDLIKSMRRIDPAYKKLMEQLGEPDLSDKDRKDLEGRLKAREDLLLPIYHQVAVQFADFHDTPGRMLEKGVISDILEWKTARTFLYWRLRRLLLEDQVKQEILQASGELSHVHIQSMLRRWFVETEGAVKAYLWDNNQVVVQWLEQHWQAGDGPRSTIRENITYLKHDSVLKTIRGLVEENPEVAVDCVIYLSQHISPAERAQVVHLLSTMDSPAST

Compound | IC50 [nM]
CC(=O)Nc1nc(C)c(C(=O)N[C@@H](C)c2ccc(CN3CCc4cc(OCC5CC5)ccc4C3)cc2)s1 [Example 2.032] | 34
CCC(=O)Nc1nc(C)c(C(=O)N[C@@H](C)c2ccc(CN3CCc4cc(OCC5CC5)ccc4C3)cc2)s1 [Example 2.033] | 39
C[C@H](NC(=O)CO)c1ccc(CN2Cc3ccc(OCC4CC4(F)F)cc3C(F)C2)cc1 (some centres unmarked) [Example 2.034] | 55
CC(=O)Nc1nc(C)c(C(=O)N[C@@H](C)c2ccc(CN3Cc4ccc(OCC5CC5(F)F)cc4C(O)C3)cc2)s1 (some centres unmarked) [Example 2.035] | 259
C[C@H](NC(=O)C1CC(F)C1)c1ccc(CN2Cc3ccc(OCC4CC4(F)F)cc3C(O)C2)cc1 (some centres unmarked) [Example 2.036] | 408
C[C@H](NC(=O)CC#N)c1ccc(CN2Cc3ccc(OCC4CC4(F)F)cc3C(O)C2)cc1 (some centres unmarked) [Example 2.037] | 806
C[C@H](NC(=O)c1cncnc1)c1ccc(CN2CC(=O)c3cc(OCC4CC4(F)F)ccc3C2)cc1 (some centres unmarked) [Example 2.038] | 819
C[C@H](NC(=O)CO)c1ccc(CN2CC(=O)c3cc(OCC4CC4(F)F)ccc3C2)cc1 (some centres unmarked) [Example 2.039] | 565
C[C@H](NC(=O)CO)c1ccc(CN2CC(=O)c3cc(OCC4CC4)ccc3C2)cc1 [Example 2.041] | 600
CC(O)C(=O)N[C@@H](C)c1ccc(CN2CC(=O)c3cc(OCC4CC4)ccc3C2)cc1 (some centres unmarked) [Example 2.042] | 624
C[C@H](NC(=O)CC#N)c1ccc(CN2CC(=O)c3cc(OCC4CC4)ccc3C2)cc1 [Example 2.043] | 428
C[C@H](NC(=O)Cc1cncnc1)c1ccc(CN2CC(=O)c3cc(OCC4CC4)ccc3C2)cc1 [Example 2.044] | 446
C[C@H](NC(=O)CC#N)c1ccc(CN2CCc3cc(OCC4CC4(F)F)ccc3C2)cc1 (stereo partly drawn) [Example 3.001, 2-Cyano-N—((S)-1-{4-[6-(2,2-difluoro-cyclopropylmethoxy)-3,4-dihydro-1H-isoquinolin-2-ylmethyl]-phenyl}-ethyl)-acetamide] | 35
C[C@H](NC(=O)C(C)(F)F)c1ccc(CN2CCc3cc(OCC4CC4(F)F)ccc3C2)cc1 (some centres unmarked) [Example 3.002] | 29
CC(C#N)C(=O)N[C@@H](C)c1ccc(CN2CCc3cc(OCC4CC4(F)F)ccc3C2)cc1 (some centres unmarked) [Example 3.003] | 91
C[C@H](NC(=O)Cc1cncnc1)c1ccc(CN2Cc3ccc(OCC4CC4(F)F)cc3C(F)C2)cc1 (some centres unmarked) [Example 3.03] | 95
C[C@H](NC(=O)c1cnn(C)c1)c1ccc(CN2CCc3cc(OCC4CC4(F)F)ccc3C2)cc1 (some centres unmarked) [Example 3.004] | 46
C[C@H](NC(=O)C1(C(F)(F)F)CC1)c1ccc(CN2CCc3cc(OCC4CC4(F)F)ccc3C2)cc1 (some centres unmarked) [Example 3.005] | 59
C[C@H](NC(=O)C1CCC1)c1ccc(CN2CCc3cc(OCC4CC4(F)F)ccc3C2)cc1 (some centres unmarked) [Example 3.006] | 38
C[C@H](NC(=O)C1CC(F)C1)c1ccc(CN2CCc3cc(OCC4CC4(F)F)ccc3C2)cc1 (some centres unmarked) [Example 3.007] | 50
C[C@H](NC(=O)c1ccns1)c1ccc(CN2CCc3cc(OCC4CC4(F)F)ccc3C2)cc1 (some centres unmarked) [Example 3.008] | 68
C[C@H](NC(=O)c1cnco1)c1ccc(CN2CCc3cc(OCC4CC4(F)F)ccc3C2)cc1 (some centres unmarked) [Example 3.009] | 59
C[C@H](NC(=O)c1cn[nH]c1)c1ccc(CN2CCc3cc(OCC4CC4(F)F)ccc3C2)cc1 (some centres unmarked) [Example 3.010] | 25
C[C@H](NC(=O)c1ccon1)c1ccc(CN2CCc3cc(OCC4CC4(F)F)ccc3C2)cc1 (some centres unmarked) [Example 3.011] | 52
Cc1[nH]ncc1C(=O)N[C@@H](C)c1ccc(CN2CCc3cc(OCC4CC4(F)F)ccc3C2)cc1 (some centres unmarked) [Example 3.012] | 122

Other lines, results leading:

IC50 [nM] | Compound
40 | C[C@H](NC(=O)C1(C#N)CC1)c1ccc(CN2CCc3cc(OCC4CC4(F)F)ccc3C2)cc1 (some centres unmarked) [Example 3.013]
103 | C[C@H](NC(=O)c1ccno1)c1ccc(CN2CCc3cc(OCC4CC4(F)F)ccc3C2)cc1 (some centres unmarked) [Example 3.014]
24 | C[C@H](NC(=O)C1(C)CC1)c1ccc(CN2CCc3cc(OCC4CC4(F)F)ccc3C2)cc1 (some centres unmarked) [Example 3.015]
162 | C[C@H](NC(=O)c1cnn(C)c1Cl)c1ccc(CN2CCc3cc(OCC4CC4(F)F)ccc3C2)cc1 (some centres unmarked) [Example 3.016]
37 | CCC(=O)Nc1nc(C)c(C(=O)N[C@@H](C)c2ccc(CN3CCc4cc(OCC5CC5(F)F)ccc4C3)cc2)s1 (some centres unmarked) [Example 3.017]
208 | C[C@H](NC(=O)c1cnn(C)c1N)c1ccc(CN2CCc3cc(OCC4CC4(F)F)ccc3C2)cc1 (some centres unmarked) [Example 3.018]
28 | C[C@H](NC(=O)c1cncs1)c1ccc(CN2CCc3cc(OCC4CC4(F)F)ccc3C2)cc1 (some centres unmarked) [Example 3.019]
33 | Cc1nocc1C(=O)N[C@@H](C)c1ccc(CN2CCc3cc(OCC4CC4(F)F)ccc3C2)cc1 (some centres unmarked) [Example 3.020]
198 | C[C@H](NC(=O)C1CC(F)(F)C1)c1ccc(CN2CCc3cc(OCC4CC4(F)F)ccc3C2)cc1 (some centres unmarked) [Example 3.021]
28 | C[C@H](NC(=O)[C@H]1C[C@H](F)C1)c1ccc(CN2CCc3cc(OCC4CC4(F)F)ccc3C2)cc1 (some centres unmarked) [Example 3.022]
45 | C[C@H](NC(=O)[C@H]1C[C@H](F)C1)c1ccc(CN2Cc3ccc(OCC4CC4)cc3C(F)C2)cc1 (some centres unmarked) [Example 3.023]
22 | CCC(=O)N[C@@H](C)c1ccc(CN2Cc3ccc(OCC4CC4)cc3C(F)C2)cc1 (some centres unmarked) [Example 3.024]
26 | CCC(=O)Nc1nc(C)c(C(=O)N[C@@H](C)c2ccc(CN3Cc4ccc(OCC5CC5)cc4C(F)C3)cc2)s1 (some centres unmarked) [Example 3.025]
49 | C[C@H](NC(=O)CC#N)c1ccc(CN2Cc3ccc(OCC4CC4)cc3C(F)C2)cc1 (some centres unmarked) [Example 3.026]
38 | CCC(=O)N[C@@H](C)c1ccc(CN2Cc3ccc(OCC4CC4(F)F)cc3C(F)C2)cc1 (some centres unmarked) [Example 3.027]
46 | C[C@H](NC(=O)C1(C#N)CC1)c1ccc(CN2Cc3ccc(OCC4CC4(F)F)cc3C(F)C2)cc1 (some centres unmarked) [Example 3.028]
45 | C[C@H](NC(=O)CC#N)c1ccc(CN2Cc3ccc(OCC4CC4(F)F)cc3C(F)C2)cc1 (some centres unmarked) [Example 3.029]

IC50 [nM] | Compound
77 | C[C@H](NC(=O)[C@H]1C[C@H](F)C1)c1ccc(CN2Cc3ccc(OCC4CC4(F)F)cc3C(F)C2)cc1 (some centres unmarked) [Example 3.031]
58 | CC(=O)Nc1nc(C)c(C(=O)N[C@@H](C)c2ccc(CN3Cc4ccc(OCC5CC5(F)F)cc4C(F)C3)cc2)s1 (some centres unmarked) [Example 3.032]
358 | C[C@H](NC(=O)c1ncc[nH]1)c1ccc(CN2Cc3ccc(OCC4CC4)cc3C(F)C2)cc1 (some centres unmarked) [Example 3.033]
115 | C[C@H](NC(=O)CC(N)=O)c1ccc(CN2Cc3ccc(OCC4CC4)cc3C(F)C2)cc1 (some centres unmarked) [Example 3.034]
143 | C[C@H](NC(=O)C1CCC(=O)N1)c1ccc(CN2Cc3ccc(OCC4CC4)cc3C(F)C2)cc1 (some centres unmarked) [Example 3.035]
518 | CC(=O)Nc1nc(C)c(C(=O)N[C@@H](C)c2ccc(CN3Cc4ccc(OCC5CC5)cc4C(F)C3)cc2)o1 (some centres unmarked) [Example 3.036]
60 | C[C@H](NC(=O)Cc1cnccn1)c1ccc(CN2Cc3ccc(OCC4CC4)cc3C(F)C2)cc1 (some centres unmarked) [Example 3.037]
198 | C[C@H](NC(=O)C1CC1)c1ccc(CN2Cc3ccc(OCC4CC4)cc3C(O)C2)cc1 (some centres unmarked) [Example 3.038]
136 | CCC(=O)N[C@@H](C)c1ccc(CN2Cc3ccc(OCC4CC4)cc3C(O)C2)cc1 (some centres unmarked) [Example 3.039]
189 | CCC(=O)Nc1nc(C)c(C(=O)N[C@@H](C)c2ccc(CN3Cc4ccc(OCC5CC5)cc4C(O)C3)cc2)s1 (some centres unmarked) [Example 3.040]
490 | C[C@H](NC(=O)C1CCC1)c1ccc(CN2Cc3ccc(OCC4CC4)cc3C(O)C2)cc1 (some centres unmarked) [Example 3.041]
72 | C[C@H](NC(=O)C1CCC1)c1ccc(CN2Cc3ccc(OCC4CC4)cc3C(F)C2)cc1 (some centres unmarked) [Example 3.042]
354 | C[C@H](NC(=O)C1(C#N)CC1)c1ccc(CN2Cc3ccc(OCC4CC4)cc3C(O)C2)cc1 (some centres unmarked) [Example 3.043]
62 | C[C@H](NC(=O)C1(C#N)CC1)c1ccc(CN2Cc3ccc(OCC4CC4)cc3C(F)C2)cc1 (some centres unmarked) [Example 3.044]
231 | CC(=O)Nc1nc(C)c(C(=O)N[C@@H](C)c2ccc(CN3Cc4ccc(OCC5CC5)cc4C(O)C3)cc2)s1 (some centres unmarked) [Example 3.045]
56 | CC(=O)Nc1nc(C)c(C(=O)N[C@@H](C)c2ccc(CN3Cc4ccc(OCC5CC5)cc4C(F)C3)cc2)s1 (some centres unmarked) [Example 3.046]
308 | C[C@H](NC(=O)c1cncs1)c1ccc(CN2Cc3ccc(OCC4CC4)cc3C(O)C2)cc1 (some centres unmarked) [Example 3.047]
